Results published in patent US9604974B2, “Compounds as modulator of JAK-STAT pathway, methods and applications thereof” (UNIVERSITY OF MYSORE, priority 2015, dated 2017).

Key:
[1] = test system: CAL27 (head and neck cancer cell line); assay: MTT anti-proliferative assay, CAL27; assay type: cell-based; conditions: Homo sapiens, CAL-27
Description: (§1) The anti-proliferative activity of Formula I compounds are studied on HepG2 cells using MTT assay. Briefly, the cells (2.5×10^4/ml) are incubated in triplicate in a 96-well plate in the presence or absence of different concentrations of compounds in a final volume of 0.2 ml up to 72 hours at 37° C. Thereafter, 20 μl MTT solution (5 mg/ml in PBS) is added to each well. After 2 hours of incubation at 37° C., 0.1 ml lysis buffer (20% SDS, 50% dimethyl-formamide) is added; incubation is continued overnight at 37° C.; and the optical density (OD) at 570 nm is measured by Tecan plate reader.
(§2) Additionally, Compound 1 is tested on a panel of six cell lines including Hep3B, PLC/PRF5, AGS (gastric cancer cell line), DU145 (prostrate cancer cell line), MDA MB231 (breast cancer cell line) and CAL27 (head and neck cancer cell line) cells.

[2] = test system: PLC/PRF5; assay: MTT anti-proliferative assay, PLC/PRF5; assay type: cell-based; conditions: Homo sapiens, PLC-PRF-5
Description: as §1, §2

[3] = test system: JAK1; assay: IL-6 induced JAK1 phosphorylation in Hep3B; assay type: cell-based; conditions: 10 μMol/L CIMO, IL-6 10 ng/mL
Description: (§3) FIG. 3 depicts comparative study of cell viability between STAT3-siRNA transfected and Compound 1 (CIMO) treated HepG2 cells [A]. Correspondingly, Western Blot analysis is used to assess the levels of phospho-STAT3 and STAT3 in HepG2 cells with siRNA-mediated depletion STAT3 expression and on exposure to 4 μM CIMO. Whole cell extract is prepared and resolved on SDS-PAGE gel, electrotransferred onto nitrocellulose membrane, and probed for phospho-STAT3 and the same blot is stripped and reprobed with STAT3 antibody and Beta actin to verify equal protein loading. [B] showcases the modulation of STAT3 mediated transcription, α2-M promoter activity by Compound 1 (CIMO) in HepG2 cells. [C] depicts the inhibition of IL-6-induced phosphorylation of STAT3, JAK1 and JAK2 by Compound 1 (CIMO). Hep3B cells (5×10^5/mL) are treated with 10 μMol/L CIMO for the indicated times and then stimulated with IL-6 (10 ng/mL) for about 15 minutes. Whole-cell extracts are then prepared, resolved on SDS-PAGE gel, electrotransferred onto nitrocellulose membrane and probed with phospho-STAT3, phospho-JAK1 and phospho-JAK2 antibodies. The same blot is stripped and reprobed with STAT3, JAK1 and JAK2 antibody to verify equal protein loading. [D] and [E], showcases the suppression of STAT3 regulated gene products involved in cell proliferation and survival by Compound 1 (CIMO). […]

[4] = test system: STAT3; assay: IL-6 induced STAT3 phosphorylation in Hep3B; assay type: cell-based; conditions: 10 μMol/L CIMO, IL-6 10 ng/mL
Description: as §3

[5] = test system: JAK2; assay: IL-6 induced JAK2 phosphorylation in Hep3B; assay type: cell-based; conditions: 10 μMol/L CIMO, IL-6 10 ng/mL
Description: as §3

[6] = test system: Bcl-2, Bcl-xL, Survivin, ICAM-1, Bid, Cyclin D1, Bak; assay: Western blot of STAT3-regulated gene products; assay type: cell-based, human; conditions: HepG2, 10 μMol/L CIMO
Description: as §3
To detect STAT3-regulated proteins and PARP, cells (2×10^6/ml) are treated with CIMO for the indicated times as shown in respective FIGS. 3E, 3D and 4A. […] Whole-cell extract protein (30 μg) is resolved on SDS-PAGE, electrotransferred onto a nitrocellulose membrane, blotted with antibodies against survivin, Bcl-2, Bcl-xL, cyclin D1, Bak, Bid, ICAM-1, procaspase-3, and PARP and then detected by chemiluminescence (ECL; GE Healthcare, Little Chalfont, Buckinghamshire, UK).

[7] = test system: STAT3; assay: Immunocytochemistry of STAT3 nuclear translocation; assay type: cell-based, human; conditions: HepG2, 10 μMol/L, about 6 hours
Description: HepG2 cells are plated in chamber slides in DMEM containing 10% FBS and allowed to adhere for about 24 hours. Following treatment with CIMO for about 6 hours, the cells are fixed with cold acetone for about 10 minutes, washed with PBS and blocked with 5% normal goat serum for about 1 hour. The cells are then incubated with rabbit polyclonal anti-human STAT3 Antibody (dilution, 1/100). After overnight incubation, the cells are washed and then incubated with goat anti-rabbit IgG-Alexa 594 ( 1/100) for about 1 hour and counterstained for nuclei with Hoechst (50 ng/ml) for about 5 minutes. Stained cells are mounted with mounting medium (Sigma-Aldrich) and analyzed under a fluorescence microscope (DP 70, Olympus, Tokyo, Japan).

[8] = test system: AGS (gastric cancer cell line); assay: MTT anti-proliferative assay, AGS; assay type: cell-based; conditions: Homo sapiens
Description: as §1, §2

[9] = test system: SHP-1, SHPTP-2, PTP1B; assay: Western blot of tyrosine phosphatase expression; assay type: cell-based, human; conditions: HepG2, CIMO up to 4 hours
[10] = test system: JAK1; assay: Western blot of constitutive phospho-JAK1 in HepG2; assay type: cell-based, human; conditions: HepG2, 10 μMol/L CIMO
[11] = test system: HepG2 cells; assay: MTT anti-proliferative assay, HepG2; assay type: cell-based; conditions: Homo sapiens
Description: as §1

IC50 [1]: 27.1 µM
IC50 [8]: 36.9 µM
IC50 ([11]; HepG2, Table 2): 7.3 µM
IC50 ([11]; HepG2 cells after 72 hours, MTT): 7.3 µM
SMILES: COc1ccc(C2CNC(c3cn(Cc4ccc(-c5ccccc5C#N)cc4)c4ccccc34)OC23CCCCC3)cc1 (centres unmarked) [Compound 1]
IC50 [2]: 38.8 µM
IL-6 induced phosphorylation of JAK1 [3]: substantially down-regulates
IL-6 induced phosphorylation of STAT3 [4]: substantially down-regulates
IL-6 induced phosphorylation of JAK2 [5]: substantially down-regulates
expression of Bcl-2, Bcl-xL, Survivin, ICAM-1, Bid and Cyclin D1 [6]: Down-regulation
time of maximum activity on Bak expression [6]: 36 h
expression of pro-apoptotic protein Bak ([6]; time-dependent): upregulation
STAT3 in the nucleus [7]: significant decrease
levels of SHP-1, SHPTP-2, PTP1B [9]: no change
phosphorylation of JAK1 [10]: significant inhibition
